Laboratory results reported in patent publication US9439903B2, “Process for the preparation of amorphous imatinib mesylate” (CADILA HEALTHCARE LIMITED, priority 2012, dated 2016).
Counter-ions that a name gives are not always drawn.

What was measured:
Format in all cases: physicochemical
[1] = Stability of amorphous imatinib mesylate, real time storage 25° C./60% RH; settings: 25° C. ± 2° C./60% ± 5% RH (Real time)
Protocol: (§1) The amorphous imatinib mesylate having less than 2.0% water, in particular, having less than 1.7% water, more particularly, water content is in the range of 0.7% to 1.7% as manufactured by the process of the present invention was subjected to stability for at least 6 months at 25° C./60% RH or at about 40° C./75% RH. The following Table-1 and Tabel-2 discloses the stability conditions and results.

[2] = Stability of amorphous imatinib mesylate, accelerated storage 40° C./75% RH; settings: 40° C. ± 2° C./75% ± 5% RH (Accelerated)
Protocol: as §1

[3] = Hygroscopicity as per Ph. Eur. general chapter 5.11
Source text: In one general aspect, the amorphous imatinib mesylate was subjected to study the hygroscopicity as per the Ph. Eur. general chapter 5.11.

Description ([1]; 1 Month): Pale yellow
Related substance (%) by HPLC: Impurity-AMPPP ([1]; 1 Month): BQL
Related substance (%) by HPLC: Impurity-MPMBA ([1]; 1 Month): BQL
Related substance (%) by HPLC: Impurity-Methyl Ester analouge ([1]; 1 Month): BQL
Related substance (%) by HPLC: Impurity-NMPPP ([1]; 1 Month): BQL
Related substance (%) by HPLC: Single largest unknown Imp ([1]; 1 Month): 0.03%
Related substance (%) by HPLC: Total Impurities ([1]; 1 Month): 0.04%
Water (%) ([1]; 1 Month): 0.72%
X-Ray Diffraction ([1]; 1 Month): Amorphous
Description ([1]; 2 Months): Pale yellow
Related substance (%) by HPLC: Impurity-AMPPP ([1]; 2 Months): BQL
Related substance (%) by HPLC: Impurity-MPMBA ([1]; 2 Months): BQL
Related substance (%) by HPLC: Impurity-Methyl Ester analouge ([1]; 2 Months): BQL
Related substance (%) by HPLC: Impurity-NMPPP ([1]; 2 Months): BQL
Related substance (%) by HPLC: Single largest unknown Imp ([1]; 2 Months): 0.03%
Related substance (%) by HPLC: Total Impurities ([1]; 2 Months): 0.04%
Water (%) ([1]; 2 Months): 0.64%
X-Ray Diffraction ([1]; 2 Months): Amorphous
Description ([1]; 3 Months): Pale yellow
Related substance (%) by HPLC: Impurity-AMPPP ([1]; 3 Months): BQL
Related substance (%) by HPLC: Impurity-MPMBA ([1]; 3 Months): BQL
Related substance (%) by HPLC: Impurity-Methyl Ester analouge ([1]; 3 Months): BQL
Related substance (%) by HPLC: Impurity-NMPPP ([1]; 3 Months): BQL
Related substance (%) by HPLC: Single largest unknown Imp ([1]; 3 Months): 0.03%
Related substance (%) by HPLC: Total Impurities ([1]; 3 Months): 0.05%
Water (%) ([1]; 3 Months): 0.65%
X-Ray Diffraction ([1]; 3 Months): Amorphous
Description ([1]; 6 Months): Pale yellow
Related substance (%) by HPLC: Impurity-AMPPP ([1]; 6 Months): BQL
Related substance (%) by HPLC: Impurity-MPMBA ([1]; 6 Months): BQL
Related substance (%) by HPLC: Impurity-Methyl Ester analouge ([1]; 6 Months): BQL
Related substance (%) by HPLC: Impurity-NMPPP ([1]; 6 Months): BQL
Related substance (%) by HPLC: Single largest unknown Imp ([1]; 6 Months): 0.03%
Related substance (%) by HPLC: Total Impurities ([1]; 6 Months): 0.06%
Water (%) ([1]; 6 Months): 0.69%
X-Ray Diffraction ([1]; 6 Months): Amorphous
Description ([2]; 1 Month): Pale yellow
Related substance (%) by HPLC: Impurity-AMPPP ([2]; 1 Month): BQL
Related substance (%) by HPLC: Impurity-MPMBA ([2]; 1 Month): BQL
Related substance (%) by HPLC: Impurity-Methyl Ester analouge ([2]; 1 Month): BQL
Related substance (%) by HPLC: Impurity-NMPPP ([2]; 1 Month): BQL
Related substance (%) by HPLC: Single largest unknown Imp ([2]; 1 Month): 0.03%
Related substance (%) by HPLC: Total Impurities ([2]; 1 Month): 0.04%
Water (%) ([2]; 1 Month): 0.88%
X-Ray Diffraction ([2]; 1 Month): Amorphous
Description ([2]; 2 Month): Pale yellow
Related substance (%) by HPLC: Impurity-AMPPP ([2]; 2 Month): BQL
Related substance (%) by HPLC: Impurity-MPMBA ([2]; 2 Month): BQL
Related substance (%) by HPLC: Impurity-Methyl Ester analouge ([2]; 2 Month): BQL
Related substance (%) by HPLC: Impurity-NMPPP ([2]; 2 Month): BQL
Related substance (%) by HPLC: Single largest unknown Imp ([2]; 2 Month): 0.03%
Related substance (%) by HPLC: Total Impurities ([2]; 2 Month): 0.05%
Water (%) ([2]; 2 Month): 0.89%
X-Ray Diffraction ([2]; 2 Month): Amorphous
Description ([2]; 3 Month): Pale yellow
Related substance (%) by HPLC: Impurity-AMPPP ([2]; 3 Month): BQL
Related substance (%) by HPLC: Impurity-MPMBA ([2]; 3 Month): BQL
Related substance (%) by HPLC: Impurity-Methyl Ester analouge ([2]; 3 Month): BQL
Related substance (%) by HPLC: Impurity-NMPPP ([2]; 3 Month): BQL
Related substance (%) by HPLC: Single largest unknown Imp ([2]; 3 Month): 0.03%
Related substance (%) by HPLC: Total Impurities ([2]; 3 Month): 0.07%
Water (%) ([2]; 3 Month): 0.79%
X-Ray Diffraction ([2]; 3 Month): Amorphous
Description ([2]; 6 Month): Pale yellow
Related substance (%) by HPLC: Impurity-AMPPP ([2]; 6 Month): BQL
Related substance (%) by HPLC: Impurity-MPMBA ([2]; 6 Month): BQL
Related substance (%) by HPLC: Impurity-Methyl Ester analouge ([2]; 6 Month): BQL
Related substance (%) by HPLC: Impurity-NMPPP ([2]; 6 Month): BQL
Related substance (%) by HPLC: Single largest unknown Imp ([2]; 6 Month): 0.03%
Related substance (%) by HPLC: Total Impurities ([2]; 6 Month): 0.07%
Water (%) ([2]; 6 Month): 0.95%
X-Ray Diffraction ([2]; 6 Month): Amorphous
hygroscopicity [3]: very hygroscopic
Compound: Cc1ccc(NC(=O)c2ccc(CN3CCN(C)CC3)cc2)cc1Nc1nccc(-c2cccnc2)n1 [amorphous imatinib mesylate, Imatinib mesylate]
